Where no end group is shown, it is not given here.
Assay: Visible dissolution of peptides in DMSO / 0.9% NaCl for pool formulation
Assay type: physicochemical
Conditions: not given
Experimental: Groups of peptides are selected and pooled. Up to four (4) pools with not more than (NMT) five (5) peptides in each pool were prepared. Each peptide was dissolved in 5.538% (v/v) DMSO followed by 0.9% NaCl solution, at a concentration of each peptide at 0.4158 mg/mL. Peptides which were visibly dissolved were accepted for that group's pool. Upon successful pooling of all peptides within a group, the pool was filtered through a 0.2 μm Nylon filter. Peptides were shipped in sterile tubes and labeled with Pool name, lot #, components, manufacturing data, quantity/concentration and storage conditions.

Row | Sequence | Solubility
1 | TYPEADSFPSWAAAHRKGSS [DDDDD.20] | Clear

Same assay, conditions: Peptide Synthesis Engineering Run Batch for Sample GGGGG; visual appearance of the peptide solution (Clear / Semi Cloudy / Cloudy)

Row | Sequence | Visual solubility (appearance of the peptide solution)
2 | TSAPGSSRLAA [GGGGG.47] | Clear
3 | FQSLCQAPPLLKDKVLTALE [GGGGG.8] | Clear
4 | STAPAEATL [GGGGG.44] | Clear
5 | RPGEDPSLHGIVKEQL [GGGGG.10] | Clear
6 | SPRVAPGSAPPWPALRSLLH [GGGGG.1] | Clear
7 | GALPVASPASL [GGGGG.45] | Clear

Same assay, conditions: Peptide synthesis engineering run batch for sample DDDDD_2020; appearance of the solution

Row | Sequence | Solubility
8 | SQAGTVTL [DDDDD.31] | Clear
9 | LNGSEPTGAYSIKGFFADYEIPN [DDDDD.26] | Clear
10 | ARPEAQSRSSPTLES [DDDDD.12] | Clear
11 | RRACGARTL [DDDDD.37] | Clear
12 | KNPQMGDPGSLQPKSAETMNNIDRLRME [DDDDD.6] | Clear
13 | ASSQAGTVTL [DDDDD.38] | Clear
14 | NQPKIGGPLGTGAFEAPGFNTTTATLGF [DDDDD.4] | Clear
15 | RDILELGGPEEDAASGTISKKD [DDDDD.30] | Clear

Same assay, conditions: Peptide synthesis engineering run batch for sample FFFFF; appearance of the solution

Row | Sequence | Solubility
16 | SLLLQEEEL [FFFFF.39] | Cloudy
17 | TPSAPEGYDLKIGLFLAPRRGSLPD [FFFFF.17] | Clear

From US20230197192A1, “SELECTING NEOANTIGENS FOR PERSONALIZED CANCER VACCINE” (AMAZON TECHNOLOGIES, INC., priority 2020, published 2023)
